Source: ChEMBL document CHEMBL1132474, “Synthesis and biological evaluation of the first N-alkyl cage dimeric 4-aryl-1,4-dihydropyridines as novel nonpeptidic HIV-1 protease inhibitors” (J Med Chem, 1999)

How the values were obtained:
[1] = molecular target: T1, Human immunodeficiency virus type 1 protease (Human immunodeficiency virus 1, UniProt Q72874); assay: compound was evaluated for the inhibition of HIV-1 protease
[2] = molecular target: T1, Human immunodeficiency virus type 1 protease; assay: Compound was evaluated for its binding affinity against HIV-1 protease

SMILES | IC50 [1] [µM] | Ki [2] [µM]
OC[C@]12C3N(Cc4ccccc4)C4[C@](CO)(C5N(Cc6ccccc6)C1[C@]3(CO)[C@H](c1ccccc1)[C@@]45CO)[C@H]2c1ccccc1 | 16.1 | 7.8
COc1ccc([C@H]2[C@]3(CO)C4NC5[C@@]2(CO)C2NC3[C@@]4(CO)[C@H](c3ccc(OC)cc3)[C@]52CO)cc1 | 209 | –
COc1ccc([C@H]2[C@]3(CO)C4N(C)C5[C@]2(CO)C2N(C)C3[C@]4(CO)[C@H](c3ccc(OC)cc3)[C@]52CO)cc1 | 195 | –
OC[C@]12C3NC4[C@](CO)(C5NC1[C@]3(CO)[C@H](c1ccccc1)[C@@]45CO)[C@H]2c1ccccc1 | 227 | –
CN1C2[C@]3(CO)C4N(C)C5[C@@](CO)(C1[C@@]5(CO)[C@@H](c1ccccc1)[C@]24CO)[C@H]3c1ccccc1 | 262 | –
COc1ccc([C@H]2[C@@]3(CO)C4N(Cc5ccccc5)C5[C@]2(CO)C2N(Cc6ccccc6)C3[C@]4(CO)[C@H](c3ccc(OC)cc3)[C@@]52CO)cc1 | 33 | –
